Results from US20150051283A1, “COMPOSITION AND METHOD FOR INHIBITION OF PKNG FROM MYCOBACTERIUM TUBERCULOSIS” (priority 2013, published 2015).

Legend:
Format in all cases: biochemical
PknG [1] = biological target: T1, PknG (Mycobacterium tuberculosis, UniProt P9WI73)
T1 construct: Full-length PknG was overexpressed in Escherichia coli BL21(DE3) cells; made in house; host or cells: Escherichia coli BL21(DE3)

PknG [2] = biological target: T1, PknG; assay: Reversibility of PknG inhibition by thiol reagents (DTT, GSH); conditions: for effect of thiol reagent per se on control PknG kinase activity: 42 mM DTT or 24 mM GSH
PknG [3] = biological target: T1, PknG; assay: PknG autophosphorylation (MALDI-TOF MS of tryptic phosphopeptides); conditions: 30 μM, 10 min before autophosphorylation reaction
Experimental: (§1) FIGS. 4A-4D are a series of graphs depicting PknG kinase activity inhibition by OA-NO2, in which FIG. 4A depicts GarA phosphorylation by PknG by linear MALDI-TOF mass spectrum of: GarA (m/z 17145, dashed line), GarA phosphorylated by PknG using a molar ratio PknG:GarA of 1:20 (m/z 17222, grey line) and GarA phosphorylated by PknG pretreated with 50 μM OA-NO2 for 10 minutes (m/z 17143, black line), FIG. 4B is a series of three panels depicting PknG autophosphorylation with an upper panel illustrating linear MALDI-TOF spectrum of native PknG after tryptic digestion showing basal autophoshporylation pattern. Unphosphorylated peptide (m/z 5395.8), monophosphorylated (m/z 5475.4) and diphosphorylated species (m/z 5555.1) are detected as expected, a middle panel depicting linear MALDI-TOF spectrum of PknG after incubation with ATP and Mn^2+ and further typtic digestion (autophoshorylation positive control). […] After 10 minutes of incubation enzyme activities were determined. Samples were analyzed in triplicates; and FIG. 4D depicts time dependent inhibition of PknG by OA-NO2. […] At the indicated time points aliquots of control and treated PknG were removed, and enzyme inhibition was determined using Kinase Glo® by comparison with control activity. Samples were analyzed in triplicates. […]

PknG [4] = biological target: T1, PknG; assay: Time course of PknG inhibition, Kinase Glo Plus luminescent kinase assay; conditions: PknG 10 μM, 50 μM OA-NO2, pre-incubation 0 to 30 min, 25° C
Experimental: as §1

PknG Rbx domain = biological target: T2, PknG Rbx domain (Mycobacterium tuberculosis, UniProt P9WI73); assay: Iron release from Rbx domain of PknG (BPS spectrophotometric determination); conditions: 50 μM of OA-NO2
T2 construct: Full-length PknG was overexpressed in Escherichia coli BL21(DE3) cells; made in house; host or cells: Escherichia coli BL21(DE3)
T2 sequence (P9WI73 whole entry, the tested form may be a part): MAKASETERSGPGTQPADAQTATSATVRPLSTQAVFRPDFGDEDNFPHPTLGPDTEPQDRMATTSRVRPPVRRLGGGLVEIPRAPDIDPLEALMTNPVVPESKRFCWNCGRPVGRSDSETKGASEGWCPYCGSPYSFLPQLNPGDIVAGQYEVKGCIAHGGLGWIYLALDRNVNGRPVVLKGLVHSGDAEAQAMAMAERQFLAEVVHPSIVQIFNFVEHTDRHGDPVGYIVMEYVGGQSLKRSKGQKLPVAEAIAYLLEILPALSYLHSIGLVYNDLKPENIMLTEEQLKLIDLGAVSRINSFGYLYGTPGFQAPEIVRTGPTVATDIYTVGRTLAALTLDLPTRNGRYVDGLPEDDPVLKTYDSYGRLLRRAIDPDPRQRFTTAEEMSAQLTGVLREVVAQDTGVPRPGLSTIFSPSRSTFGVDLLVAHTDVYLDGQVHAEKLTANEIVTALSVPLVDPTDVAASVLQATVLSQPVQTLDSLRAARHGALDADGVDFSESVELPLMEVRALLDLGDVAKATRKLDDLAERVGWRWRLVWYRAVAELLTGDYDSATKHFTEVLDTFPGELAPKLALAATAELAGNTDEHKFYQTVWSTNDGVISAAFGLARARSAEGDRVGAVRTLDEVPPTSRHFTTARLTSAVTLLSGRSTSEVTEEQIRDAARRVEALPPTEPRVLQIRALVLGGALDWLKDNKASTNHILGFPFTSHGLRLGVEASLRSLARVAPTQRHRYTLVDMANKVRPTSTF

T1 sequence (P9WI73 whole entry): as the sequence (P9WI73 whole entry, the tested form may be a part) above

NC(=O)CI [IAM, iodoacetamide, reference compound]
effect on kinase activity (PknG [1]; IAM treatment (up to 150 μM, PknG 10 μM), only free Cys156 modified): without affecting kinase activity

O[C@@H](CS)[C@@H](O)CS [DTT]
effect of thiol reagent per se on control PknG kinase activity (PknG [2]): no effect

CCCCCCCCC=CCCCCCCCC(=O)O [oleic acid, 9-octadecenoic acid, reference compound]
effect on kinase activity (control) (PknG [1]; equivalent concentrations to OA-NO2, data not shown): no effect

N[C@@H](CCC(=O)N[C@@H](CS)C(=O)NCC(=O)O)C(=O)O [GSH]
effect of thiol reagent per se on control PknG kinase activity (PknG [2]): no effect

9- and 10-nitro-octadeca-9-cis-enoic acid [OA-NO2]
autocatalytic (autophosphorylation) activity (PknG [3]): inhibited
kinase activity versus pre-incubation time (PknG [4]): decreased kinase activity in a time-dependent manner
iron present at the Rbx domain released (PknG Rbx domain): 70%
ability to phosphorylate GarA (PknG [1]; 30 μM, molar ratio OA-NO2:PknG 3:1, 10 minutes of preincubation): clearly decreased
IC50 (PknG [1]; PknG 8 μM, OA-NO2 0 to 80 μM, 10 min pre-incubation, 70 mM ammonium bicarbonate pH 8.0, 25° C, read-out: concentration at which 50% of enzyme inhibition was reached): 35 µM
kinase activity of PknG (PknG [1]; micromolar concentrations, molar excess ranging from 1:1 to 1:3): noticeably inhibited
effect of OA-NO2 on PknG activity (reversibility) (PknG [2]): irreversible
